Patent US7276519B2, “Thieno[3,2-b]pyridine-6-carbonitriles and thieno[2,3-b]pyridine-5-carbonitriles as protein kinase inhibitors” (Wyeth, priority 2002, dated 2007)
Read-outs that look alike come from different tables or passages of the source.

How the values were obtained:
[1] = test system: Rat2 fibroblasts stably transformed with v-Src/Hu c-Src fusion gene; experiment: Anchorage independent Src-transformed fibroblast proliferation assay; format: cell-based, rat; settings: for IC50: suspension growth, MTS readout Day 5; for inhibition at 100 µM / inhibition at 10 µM: Rat2, Table 1; for inhibition at 100 µM: read-out: Src cells % inh at 100 μM; for inhibition at 10 µM: read-out: Src cells % inh at 10 μM
Description: Anchorage Independent Src-Transformed Fibroblast Proliferation Assay Rat2 fibroblasts stably transformed with a plasmid containing a CMV promotor controlled v-Src/Hu c-Src fusion gene in which the catalytic domain of human c-Src was inserted in place of the v-Src catalytic domain in the v-Src gene are used for the measurement of src dependent suspension growth. […] Multiple entries for a given compound indicate that it was tested multiple times.

[2] = Rattus norvegicus, Rat2, 120 h, Table 1, read-out: Src cells IC50
[3] = Table 1, read-out: Src cells IC50

SMILES | melting point | IC50 [1, 2] | other results
COc1cc(Nc2c(C#N)cnc3cc(-c4ccc(C(=O)O)cc4)sc23)c(Cl)cc1Cl [Example 19, 4-{6-Cyano-7-[(2,4-dichloro-5-methoxyphenyl)amino]thieno[3,2-b]pyridine-2-yl]benzoic acid] | > 300 °C | > 10 µM | 
Cn1ccnc1Sc1ccc(Nc2c(C#N)cnc3sccc23)cc1Cl [Example 6, 4-[(3-Chloro-4-[(1-methyl-1H-imidazol-2-yl)thio]phenyl)amino]thieno[2,3-b]pyridine-5-carbonitrile] | > 240 °C |  | inhibition at 100 µM ([1]; Rattus norvegicus): 3%
COc1cc(Nc2c(C#N)cnc3cc(-c4ccc(C=O)cc4)sc23)c(Cl)cc1Cl [Example 14, 7-[(2,4-Dichloro-5-methoxyphenyl)amino]-2-(4-formylphenyl)thieno[3,2-b]pyridine-6-carbonitrile] | 261 to 262 °C | 0.66 µM | 
COc1cc(Nc2c(C#N)cnc3cc(-c4csc(C=O)c4)sc23)c(Cl)cc1Cl [Example 37, 7-[(2,4-Dichloro-5-methoxyphenyl)amino]-2-(5-formylthien-3-yl)thieno[3,2-b]pyridine-6-carbonitrile] | 259 to 261 °C | 1.1 µM | 
C#Cc1cc2ncc(C#N)c(Nc3cc(OC)c(Cl)cc3Cl)c2s1 [Example 33, 7-[(2,4-Dichloro-5-methoxyphenyl)amino]-2-ethynylthieno[3,2-b]pyridine-6-carbonitrile] | 198 to 200 °C | 0.88 µM | 
N#Cc1cnc2ccsc2c1Nc1ccc(Cl)cc1Cl [Example 10, 7-[(2,4-Dichlorophenyl)amino]thieno[3,2-b]pyridine-6-carbonitrile] | 198 to 200 °C | 39 µM | 
COc1cc(Nc2c(C#N)cnc3cc(C)sc23)c(Cl)cc1Cl [Example 9, 7-[(2,4-Dichloro-5-methoxyphenyl)amino]-2-methylthieno[3,2-b]pyridine-6-carbonitrile] | 213 to 214 °C | 20 µM | 
COc1cc(Nc2c(C#N)cnc3cc(-c4ccc(CO)cc4)sc23)c(Cl)cc1Cl [Example 41, 7-[(2,4-Dichloro-5-methoxyphenyl)amino]-2-[4-(hydroxymethyl)phenyl]thieno[3,2-b]pyridine-6-carbonitrile] | 239 to 240 °C | 0.56 µM | 
COc1cc(Nc2c(C#N)cnc3cc(-c4cccc(C=O)c4)sc23)c(Cl)cc1Cl [Example 25, 7-[(2,4-Dichloro-5-methoxyphenyl)amino]-2-(3-formylphenyl)thieno[3,2-b]pyridine-6-carbonitrile] | 262 to 263 °C | 1.1 µM | 
COc1cc(Nc2c(C#N)cnc3cc(-c4csc(C5OCCO5)c4)sc23)c(Cl)cc1Cl [Example 36, 7-[(2,4-Dichloro-5-methoxyphenyl)amino]-2-[5-(1,3-dioxolan-2-yl)thien-3-yl]thieno[3,2-b]pyridine-6-carbonitrile] | 219 to 221 °C | 1.6 µM | 
N#Cc1cnc2ccsc2c1NCc1ccc(Cl)cc1Cl [Example 13, 7-[(2,4-Dichlorobenzyl)amino]thieno[3,2-b]pyridine-6-carbonitrile] | 215 to 216 °C |  | inhibition at 10 µM ([1]; Rattus norvegicus): 34%
COc1cc(Nc2c(C#N)cnc3cc(C#C[Si](C)(C)C)sc23)c(Cl)cc1Cl [Example 32, 7-[(2,4-Dichloro-5-methoxyphenyl)amino]-2-[(trimethylsilyl)ethynyl]thieno[3,2-b]pyridine-6-carbonitrile] | 169 to 171 °C |  | IC50 ([1]; Rattus norvegicus, Rat2, 120 h, read-out: Src cells IC50 μM, Table 1): 1.5 µM
COc1cc(Nc2c(C#N)cnc3sc(I)cc23)c(Cl)cc1Cl [Example 7, 4-[(2,4-Dichloro-5-methoxyphenyl)amino]-2-iodothieno[2,3-b]pyridine-5-carbonitrile] | 231 to 233 °C |  | inhibition at 10 µM ([1]; Rattus norvegicus): 31%
COc1cc(Nc2c(C#N)cnc3sc(C)cc23)c(Cl)cc1Cl [Example 8, 4-[(2,4-Dichloro-5-methoxyphenyl)amino]-2-methylthieno[2,3-b]pyridine-5-carbonitrile] | 179 to 181 °C |  | inhibition at 10 µM ([1]; Rattus norvegicus): 33%
COc1cc(Nc2c(C#N)cnc3cc(C#Cc4ccncc4)sc23)c(Cl)cc1Cl [Example 34, 7-[(2,4-Dichloro-5-methoxyphenyl)amino]-2-(pyridin-4-ylethynyl)thieno[3,2-b]pyridine-6-carbonitrile] | 221 to 223 °C | 8.6 µM | 

Continued, in another order:

melting point | SMILES | IC50 [1, 2] | other results
224 °C (dec.) | COc1cc(Nc2c(C#N)cnc3cc(/C=C/C(=O)OC(C)(C)C)sc23)c(Cl)cc1Cl [Example 50, tert-Butyl (2E)-3-{6-cyano-7-[(2,4-dichloro-5-methoxyphenyl)amino]thieno[3,2-b]pyridin-2-yl}prop-2-enoate] | 7.4 µM | 
254 to 256 °C | N#Cc1cnc2cc(-c3ccc(CN4CCOCC4)cc3)sc2c1Nc1ccc(Oc2ccccc2)cc1 [Example 45, 2-[4-(Morpholin-4-ylmethyl)phenyl]-7-[(4-phenoxyphenyl)amino]thieno[3,2-b]pyridine-6-carbonitrile] |  | inhibition at 100 µM ([1]; Rattus norvegicus): 2%
218 to 220 °C | COc1cc(Nc2c(C#N)cnc3cc(/C=C/C(=O)N4CCN(C)CC4)sc23)c(Cl)cc1Cl [Example 56, 7-[(2,4-Dichloro-5-methoxyphenyl)amino]-2-[(1E)-3-(4-methylpiperazin-1-yl)-3-oxoprop-1-enyl]thieno[3,2-b]pyridine-6-carbonitrile] | 3.93 µM | IC50 [1, 3]: 2.2 µM
225 to 227 °C | COc1cc(Nc2c(C#N)cnc3cc(-c4cnc(C=O)n4C)sc23)c(Cl)cc1Cl [Example 54, 7-[(2,4-Dichloro-5-methoxyphenyl)amino]-2-(2-formyl-1-methyl-1H-imidazol-5-yl)thieno[3,2-b]pyridine-6-carbonitrile] | 1.51 µM | IC50 [1, 3]: 1.01 µM
230 to 232 °C | N#Cc1cnc2cc(-c3ccc(C=O)cc3)sc2c1Nc1ccc(Oc2ccccc2)cc1 [Example 43, 2-(4-Formylphenyl)-7-[(4-phenoxyphenyl)amino]thieno[3,2-b]pyridine-6-carbonitrile] |  | inhibition at 100 µM ([1]; Rattus norvegicus): 4%
254 to 256 °C | COc1cc(Nc2c(C#N)cnc3cc(I)sc23)cc(OC)c1OC [Example 47, 2-Iodo-7-[(3,4,5-trimethoxyphenyl)amino]thieno[3,2-b]pyridine-6-carbonitrile] |  | inhibition at 100 µM ([1]; Rattus norvegicus): 74%
268 to 270 °C | COc1cc(Nc2c(C#N)cnc3cc(-c4ccc(C=O)cc4)sc23)cc(OC)c1OC [Example 55, 2-(4-Formylphenyl)-7-[(3,4,5-trimethoxyphenyl)amino]thieno[3,2-b]pyridine-6-carbonitrile] |  | inhibition at 100 µM ([1]; Rattus norvegicus): 97%
175 °C (dec.) | COc1cc(Nc2c(C#N)cnc3sc(C#CCN4CCN(C)CC4)cc23)c(Cl)cc1Cl [Example 51, 4-[(2,4-Dichloro-5-methoxyphenyl)amino]-2-[3-(4-methylpiperazin-1-yl)prop-1-ynyl]thieno[2,3-b]pyridine-5-carbonitrile] | 9.9 µM | 
180 to 182 °C | COc1cc(Nc2c(C#N)cnc3cc(C#CCN4CCN(C)CC4)sc23)cc(OC)c1OC [Example 57, 2-[3-(4-Methylpiperazin-1-yl)prop-1-ynyl]-7-[(3,4,5-trimethoxyphenyl)amino]thieno[3,2-b]pyridine-6-carbonitrile] |  | inhibition at 100 µM ([1]; Rattus norvegicus): 70%
